The subject of the experiment is mouse mast cells P815. Nature of the experiment: Inhibition of IL-4 and IL-13 secretion by compound 48/80-induced mouse mast cells P815. The note with it: synthetic peptides; for IL-4 Concentration decrease percentage (%) / IL-13 Concentration decrease percentage (%): P815 cells, compound 48/80 10 μg/mL; for effects in inhibiting secretion of IL-4 and IL-13 by cells: comparison within Table 3; for inhibiting allergic reactions: conclusion from Table 3. On the set-up: key to IL-13 Concentration decrease percentage (%) / IL-4 Concentration decrease percentage (%): N represents that the results obtained have not decreased. In kind it is cell-based. The method, then: Referring to the method disclosed in Example 3, an ability of each of the above synthetic sequences in inhibiting secretion of cytokines such as IL-4 and IL-13 is tested, the results are shown in Table 3, where N represents that the results obtained have not decreased.

This is an account of results in patent US12180306B2, “Anti-allergic peptide and use thereof for immune regulation and anti-allergy” (Greenyn Biotechnology Co., Ltd, priority 2022, dated 2024).

For GVSGGVLAAILG [Peptide 9], the “IL-4 Concentration decrease percentage (%)” value was 5.8% and the “IL-13 Concentration decrease percentage (%)” value is recorded as 2.7%.

Turning to DLDVVVALGI [Peptide 5], the “effects in inhibiting secretion of IL-4 and IL-13 by cells” value (“effects in inhibiting secretion” below) was “better effects”; the inhibiting allergic reactions result is recorded as “capable of inhibiting allergic reactions”; the “IL-4 Concentration decrease percentage (%)” value was determined as 7.3%; the “IL-13 Concentration decrease percentage (%)” value turned out to be 24.0%.

PPYQGAPLM [Peptide 11]: the “IL-4 Concentration decrease percentage (%)” value is recorded as 10.0% and the “IL-13 Concentration decrease percentage (%)” value is “N”.

Turning to KIVNQVNHLNPT [Peptide 12], the “IL-4 Concentration decrease percentage (%)” value was “N” and the “IL-13 Concentration decrease percentage (%)” value is on record as 10.8%.

On to DLQLAGLIGL [Peptide 1], for which the inhibiting allergic reactions result is “capable of inhibiting allergic reactions”, the “IL-4 Concentration decrease percentage (%)” value is listed as 14.5% and the “IL-13 Concentration decrease percentage (%)” value is 24.0%.

For the sequence LVPWSIIGL [Peptide 14], the “IL-4 Concentration decrease percentage (%)” value was “N” and the “IL-13 Concentration decrease percentage (%)” value turned out to be 9.8%.

GLGDAKVALGI [Peptide 3]: the “effects in inhibiting secretion” value is given as “better effects”; the inhibiting allergic reactions entry is on record as “capable of inhibiting allergic reactions”; the “IL-4 Concentration decrease percentage (%)” value was determined as 5.1%; the “IL-13 Concentration decrease percentage (%)” value was found to be 21.7%.

As for ADALQLVLAV [Peptide 15], the “IL-4 Concentration decrease percentage (%)” value is listed as 2.7% and the “IL-13 Concentration decrease percentage (%)” value amounted to 3.8%.

For the sequence QTAQALVLIG [Peptide 13], the “IL-4 Concentration decrease percentage (%)” value is “N” and the “IL-13 Concentration decrease percentage (%)” value is given as 12.1%.

Consider NPALQVIKV [Peptide 2], for which the “effects in inhibiting secretion” value was “better effects”; the inhibiting allergic reactions entry is recorded as “capable of inhibiting allergic reactions”; the “IL-4 Concentration decrease percentage (%)” value was 8.1%; the “IL-13 Concentration decrease percentage (%)” value was determined as 27.1%.

As for NKKQAAALGI [Peptide 8], the “IL-4 Concentration decrease percentage (%)” value amounted to 1.0% and the “IL-13 Concentration decrease percentage (%)” value is 11.4%.

In the case of EWLLGLLGI [Peptide 4], the inhibiting allergic reactions result is listed as “capable of inhibiting allergic reactions”, the “IL-4 Concentration decrease percentage (%)” value amounted to 19.9% and the “IL-13 Concentration decrease percentage (%)” value was found to be 35.4%.

Consider TANAIGLAGLI [Peptide 10], for which the “IL-4 Concentration decrease percentage (%)” value came out at 9.3% and the “IL-13 Concentration decrease percentage (%)” value was “N”.

Regarding TRQKALAALGI [Peptide 16], the “IL-4 Concentration decrease percentage (%)” value is “N” and the “IL-13 Concentration decrease percentage (%)” value amounted to 5.9%.

With VGNSLAAVIIG [Peptide 6], the “IL-4 Concentration decrease percentage (%)” value was found to be 0.9% and the “IL-13 Concentration decrease percentage (%)” value came to 2.7%.

On to PMALLAVLGL [Peptide 7], for which the “IL-4 Concentration decrease percentage (%)” value was determined as 4.1% and the “IL-13 Concentration decrease percentage (%)” value is given as 5.2%.
